Test system: 186277-243-T-J2-PDC complex spheroid viability
Assay: Anticancer human tumor 186277-243-T-J2-PDC patient-derived colon adenocarcinoma cell line growth inhibition [GQUAD]
Conditions: for IC50: curve of first compound; for viability, T/C: stronger effect = lower value
Summary of the method: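 Tumor cells were grown as complex spheroids with HUVEC endothelial cells and mesenchymal stem cells as stroma. G-quadruplex stabilizers were combined with targeted agents over half-log dilutions from near the clinical Cmax, or from 10 microM.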

[1] = second compound 0.0316 µM, first compound 0.000999 µM
[2] = second compound 0.0316 µM, first compound 0.00316 µM
[3] = second compound 0.0316 µM, first compound 0.00999 µM
[4] = second compound 0.0316 µM, first compound 0.0316 µM
[5] = second compound 0.0316 µM, first compound 0.0999 µM
[6] = second compound 0.0316 µM, first compound 0.316 µM
[7] = second compound 0.1 µM, first compound 0.000999 µM
[8] = second compound 0.1 µM, first compound 0.00316 µM
[9] = second compound 0.1 µM, first compound 0.00999 µM
[10] = second compound 0.1 µM, first compound 0.0316 µM
[11] = second compound 0.1 µM, first compound 0.0999 µM
[12] = second compound 0.1 µM, first compound 0.316 µM
[13] = second compound 0.316 µM, first compound 0.000999 µM
[14] = second compound 0.316 µM, first compound 0.00316 µM
[15] = second compound 0.316 µM, first compound 0.00999 µM
[16] = second compound 0.316 µM, first compound 0.0316 µM
[17] = second compound 0.316 µM, first compound 0.0999 µM
[18] = second compound 0.316 µM, first compound 0.316 µM
[19] = second compound 1 µM, first compound 0.000999 µM
[20] = second compound 1 µM, first compound 0.00316 µM
[21] = second compound 1 µM, first compound 0.00999 µM
[22] = second compound 1 µM, first compound 0.0316 µM
[23] = second compound 1 µM, first compound 0.0999 µM
[24] = second compound 1 µM, first compound 0.316 µM
[25] = second compound 3.16 µM, first compound 0.000999 µM
[26] = second compound 3.16 µM, first compound 0.00316 µM
[27] = second compound 3.16 µM, first compound 0.00999 µM
[28] = second compound 3.16 µM, first compound 0.0316 µM
[29] = second compound 3.16 µM, first compound 0.0999 µM
[30] = second compound 3.16 µM, first compound 0.316 µM
[31] = second compound 10 µM, first compound 0.000999 µM
[32] = second compound 10 µM, first compound 0.00316 µM
[33] = second compound 10 µM, first compound 0.00999 µM
[34] = second compound 10 µM, first compound 0.0316 µM
[35] = second compound 10 µM, first compound 0.0999 µM
[36] = second compound 10 µM, first compound 0.316 µM
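Also: spheroids exposed to drugs for 7 days.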
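For viability, T/C in this document: 100% = DMSO vehicle control viability.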

Compound: Cn1ncnc1[C@H]1c2n[nH]c(=O)c3cc(F)cc(c23)N[C@@H]1c1ccc(F)cc1 + Cc1cnc(CNC(=O)c2c(=O)c3ccc(N4CCCN(C)CC4)nc3n3c2sc2ccccc23)cn1
- IC50 (second compound 0.0316 µM): > 316 nM
- IC50 (second compound 0.1 µM): > 316 nM
- IC50 (second compound 0.316 µM): > 316 nM
- IC50 (second compound 1 µM): > 316 nM
- IC50 (second compound 3.16 µM): > 316 nM
- IC50 (second compound 10 µM): < 0.999 nM
- viability, T/C [1]: 107%
- viability, T/C [2]: 101%
- viability, T/C [3]: 108%
- viability, T/C [4]: 78.6%
- viability, T/C [5]: 85.2%
- viability, T/C [6]: 78.2%
- viability, T/C [7]: 102%
- viability, T/C [8]: 103%
- viability, T/C [9]: 84.3%
- viability, T/C [10]: 94.8%
- viability, T/C [11]: 85.5%
- viability, T/C [12]: 71.6%
- viability, T/C [13]: 75.7%
- viability, T/C [14]: 79.2%
- viability, T/C [15]: 80.1%
- viability, T/C [16]: 77%
- viability, T/C [17]: 73.1%
- viability, T/C [18]: 70.3%
- viability, T/C [19]: 65.6%
- viability, T/C [20]: 57.3%
- viability, T/C [21]: 59.2%
- viability, T/C [22]: 59.4%
- viability, T/C [23]: 62.5%
- viability, T/C [24]: 52.8%
- viability, T/C [25]: 48.1%
- viability, T/C [26]: 55.6%
- viability, T/C [27]: 52.5%
- viability, T/C [28]: 51.4%
- viability, T/C [29]: 54%
- viability, T/C [30]: 48.7%
- viability, T/C [31]: 46%
- viability, T/C [32]: 42.1%
- viability, T/C [33]: 43.4%
- viability, T/C [34]: 46.9%
- viability, T/C [35]: 55.7%
- viability, T/C [36]: 42.5%

Compound: CC[C@@]1(O)C(=O)OCc2c1cc1n(c2=O)Cc2cc3c(CN(C)C)c(O)ccc3nc2-1 + Cc1[nH]c2ccc(F)cc2c1-c1nc2c3cccnc3c3ncccc3c2[nH]1
- IC50 (second compound 0.0316 µM): > 316 nM
- IC50 (second compound 0.1 µM): > 316 nM
- IC50 (second compound 0.316 µM): > 316 nM
- IC50 (second compound 1 µM): > 316 nM
- IC50 (second compound 3.16 µM): > 316 nM
- IC50 (second compound 10 µM): > 316 nM
- viability, T/C [1]: 97%
- viability, T/C [2]: 91.6%
- viability, T/C [3]: 88.2%
- viability, T/C [4]: 93.9%
- viability, T/C [5]: 68.2%
- viability, T/C [6]: 51.6%
- viability, T/C [7]: 111%
- viability, T/C [8]: 106%
- viability, T/C [9]: 94.2%
- viability, T/C [10]: 93.7%
- viability, T/C [11]: 77.9%
- viability, T/C [12]: 59.6%
- viability, T/C [13]: 96.3%
- viability, T/C [14]: 95%
- viability, T/C [15]: 92.8%
- viability, T/C [16]: 89.8%
- viability, T/C [17]: 78%
- viability, T/C [18]: 60.7%
- viability, T/C [19]: 95.3%
- viability, T/C [20]: 101%
- viability, T/C [21]: 94.8%
- viability, T/C [22]: 103%
- viability, T/C [23]: 77.7%
- viability, T/C [24]: 55.7%
- viability, T/C [25]: 118%
- viability, T/C [26]: 94.1%
- viability, T/C [27]: 109%
- viability, T/C [28]: 92.9%
- viability, T/C [29]: 67.4%
- viability, T/C [30]: 57.4%
- viability, T/C [31]: 87.9%
- viability, T/C [32]: 99.9%
- viability, T/C [33]: 86.8%
- viability, T/C [34]: 87.3%
- viability, T/C [35]: 79.8%
- viability, T/C [36]: 56.1%

Compound: O=C(c1cc(Cc2n[nH]c(=O)c3ccccc23)ccc1F)N1CCN(C(=O)C2CC2)CC1 + CN(C)c1ccc(Nc2c3ccc(NC(=O)CCN4CCCC4)cc3nc3cc(NC(=O)CCN4CCCC4)ccc23)cc1
- IC50 (second compound 0.0316 µM): > 10000 nM
- IC50 (second compound 0.1 µM): > 10000 nM
- IC50 (second compound 0.316 µM): > 10000 nM
- IC50 (second compound 1 µM): > 10000 nM
- IC50 (second compound 3.16 µM): > 10000 nM
- IC50 (second compound 10 µM): > 10000 nM
- viability, T/C [4]: 116%
- viability, T/C (second compound 0.0316 µM, first compound 0.1 µM): 122%
- viability, T/C [6]: 115%
- viability, T/C (second compound 0.0316 µM, first compound 1 µM): 93.5%
- viability, T/C (second compound 0.0316 µM, first compound 3.16 µM): 81.8%
- viability, T/C (second compound 0.0316 µM, first compound 10 µM): 70.2%
- viability, T/C [10]: 117%
- viability, T/C (second compound 0.1 µM, first compound 0.1 µM): 118%
- viability, T/C [12]: 115%
- viability, T/C (second compound 0.1 µM, first compound 1 µM): 99%
- viability, T/C (second compound 0.1 µM, first compound 3.16 µM): 103%
- viability, T/C (second compound 0.1 µM, first compound 10 µM): 53.5%
- viability, T/C [16]: 97.7%
- viability, T/C (second compound 0.316 µM, first compound 0.1 µM): 111%
- viability, T/C [18]: 102%
- viability, T/C (second compound 0.316 µM, first compound 1 µM): 95.1%
- viability, T/C (second compound 0.316 µM, first compound 3.16 µM): 111%
- viability, T/C (second compound 0.316 µM, first compound 10 µM): 63.4%
- viability, T/C [22]: 98.2%
- viability, T/C (second compound 1 µM, first compound 0.1 µM): 100%
- viability, T/C [24]: 105%
- viability, T/C (second compound 1 µM, first compound 1 µM): 110%
- viability, T/C (second compound 1 µM, first compound 3.16 µM): 89.9%
- viability, T/C (second compound 1 µM, first compound 10 µM): 75.9%
- viability, T/C [28]: 90.4%
- viability, T/C (second compound 3.16 µM, first compound 0.1 µM): 109%
- viability, T/C [30]: 95.3%
- viability, T/C (second compound 3.16 µM, first compound 1 µM): 100%
- viability, T/C (second compound 3.16 µM, first compound 3.16 µM): 78.7%
- viability, T/C (second compound 3.16 µM, first compound 10 µM): 64.5%
- viability, T/C [34]: 105%
- viability, T/C (second compound 10 µM, first compound 0.1 µM): 116%
- viability, T/C [36]: 120%
- viability, T/C (second compound 10 µM, first compound 1 µM): 111%
- viability, T/C (second compound 10 µM, first compound 3.16 µM): 95.9%
- viability, T/C (second compound 10 µM, first compound 10 µM): 54.9%

Compound: CC[C@@]1(O)C(=O)OCc2c1cc1n(c2=O)Cc2cc3c(CN(C)C)c(O)ccc3nc2-1 + CN(C)c1ccc(Nc2c3ccc(NC(=O)CCN4CCCC4)cc3nc3cc(NC(=O)CCN4CCCC4)ccc23)cc1
- IC50 (second compound 0.0316 µM): > 316 nM
- IC50 (second compound 0.1 µM): 153 nM
- IC50 (second compound 0.316 µM): 178 nM
- IC50 (second compound 1 µM): 206 nM
- IC50 (second compound 3.16 µM): 209 nM
- IC50 (second compound 10 µM): 252 nM
- viability, T/C [1]: 91.1%
- viability, T/C [2]: 115%
- viability, T/C [3]: 99.2%
- viability, T/C [4]: 88.3%
- viability, T/C [5]: 54.4%
- viability, T/C [6]: 50.1%
- viability, T/C [7]: 91.5%
- viability, T/C [8]: 104%
- viability, T/C [9]: 92.5%
- viability, T/C [10]: 70.9%
- viability, T/C [11]: 61.1%
- viability, T/C [12]: 36.9%
- viability, T/C [13]: 93.9%
- viability, T/C [14]: 102%
- viability, T/C [15]: 95.6%
- viability, T/C [16]: 81.4%
- viability, T/C [17]: 59.4%
- viability, T/C [18]: 41.2%
- viability, T/C [19]: 86.5%
- viability, T/C [20]: 81.7%
- viability, T/C [21]: 87.1%
- viability, T/C [22]: 72%
- viability, T/C [23]: 65.6%
- viability, T/C [24]: 41.2%
- viability, T/C [25]: 96.8%
- viability, T/C [26]: 99.5%
- viability, T/C [27]: 105%
- viability, T/C [28]: 74.4%
- viability, T/C [29]: 65.2%
- viability, T/C [30]: 42.5%
- viability, T/C [31]: 93.8%
- viability, T/C [32]: 85.7%
- viability, T/C [33]: 98%
- viability, T/C [34]: 85.1%
- viability, T/C [35]: 58.3%
- viability, T/C [36]: 47.9%

Reference: PubChem BioAssay AID2060512 (Molecular Pharmacology Branch, DTP, NCI, 2025)
